Tests used:
[1] = system: GTPase KRas (Homo sapiens), P01116 [UNDEFINED MUTATION]; assay: Inhibition of KRas mutant in human SW480 cells assessed as cell viability by measuring ATP at 0.2 uM relative to control; assay type: cell-based
[2] = system: GTPase KRas (Homo sapiens), P01116 [UNDEFINED MUTATION]; assay: Inhibition of KRas mutant in human SW480 cells assessed as cell viability by measuring ATP at 2 uM relative to control; assay type: cell-based
[3] = system: GTPase KRas (Homo sapiens), P01116 [UNDEFINED MUTATION]; assay: Inhibition of KRas mutant in human SW480 cells assessed as cell viability by measuring ATP at 20 uM relative to control; assay type: cell-based
[4] = system: GTPase KRas (Homo sapiens), P01116 [UNDEFINED MUTATION]; assay: Inhibition of KRas mutant in human DLD1 cells assessed as cell viability by measuring ATP at 0.2 uM relative to control; assay type: cell-based
[5] = system: GTPase KRas (Homo sapiens), P01116 [UNDEFINED MUTATION]; assay: Inhibition of KRas mutant in human DLD1 cells assessed as cell viability by measuring ATP at 2 uM relative to control; assay type: cell-based
[6] = system: GTPase KRas (Homo sapiens), P01116 [UNDEFINED MUTATION]; assay: Inhibition of KRas mutant in human DLD1 cells assessed as cell viability by measuring ATP at 20 uM relative to control; assay type: cell-based
[7] = system: GTPase KRas (Homo sapiens), P01116 [UNDEFINED MUTATION]; assay: Inhibition of KRas mutant in human HCT116 cells assessed as cell viability by measuring ATP at 0.2 uM relative to control; assay type: cell-based
[8] = system: GTPase KRas (Homo sapiens), P01116 [UNDEFINED MUTATION]; assay: Inhibition of KRas mutant in human HCT116 cells assessed as cell viability by measuring ATP at 2 uM relative to control; assay type: cell-based
[9] = system: GTPase KRas (Homo sapiens), P01116 [UNDEFINED MUTATION]; assay: Inhibition of KRas mutant in human HCT116 cells assessed as cell viability by measuring ATP at 20 uM relative to control; assay type: cell-based
[10] = system: GTPase KRas (Homo sapiens), P01116 [UNDEFINED MUTATION]; assay: Inhibition of KRas mutant in human HCT116 cells […] assessed as cell viability by measuring ATP at 0.2 uM relative to control; assay type: cell-based
[11] = system: GTPase KRas (Homo sapiens), P01116 [UNDEFINED MUTATION]; assay: Inhibition of KRas mutant in human HCT116 cells […] assessed as cell viability by measuring ATP at 2 uM relative to control; assay type: cell-based
[12] = system: GTPase KRas (Homo sapiens), P01116 [UNDEFINED MUTATION]; assay: Inhibition of KRas mutant in human HCT116 cells […] assessed as cell viability by measuring ATP at 20 uM relative to control; assay type: cell-based
[13] = system: GTPase KRas (Homo sapiens), P01116 [UNDEFINED MUTATION]; assay: Inhibition of KRas mutant in human SW480 cells assessed as cell viability by measuring ATP; assay type: cell-based
[14] = system: GTPase KRas (Homo sapiens), P01116 [UNDEFINED MUTATION]; assay: Inhibition of KRas mutant in human DLD1 cells assessed as cell viability by measuring ATP; assay type: cell-based
[15] = system: GTPase KRas (Homo sapiens), P01116 [UNDEFINED MUTATION]; assay: Inhibition of KRas mutant in human HCT116 cells assessed as cell viability by measuring ATP; assay type: cell-based
[16] = system: GTPase KRas (Homo sapiens), P01116 [UNDEFINED MUTATION]; assay: Inhibition of KRas mutant in human HCT116 cells […] assessed as cell viability by measuring ATP; assay type: cell-based
HeLa [17] = assay: Cell cycle arrest in human HeLa cells assessed as effect on 2N stage incubated for 21 hrs by propidium iodide based flow cytometry; assay type: functional
HeLa [18] = assay: Cell cycle arrest in human HeLa cells assessed as effect on 4N stage incubated for 21 hrs by propidium iodide based flow cytometry; assay type: functional
HeLa [19] = assay: Cell cycle arrest in human HeLa cells assessed as effect on mitotic index incubated for 21 hrs by propidium iodide based flow cytometry; assay type: functional
HeLa [20] = assay: Cell cycle arrest in human HeLa cells incubated for 21 hrs by propidium iodide based flow cytometry; assay type: functional
HeLa [21] = assay: Cell cycle arrest in human HeLa cells assessed as effect on G1 phase incubated for 21 hrs by propidium iodide based flow cytometry; assay type: functional
HeLa [22] = assay: Cell cycle arrest in human HeLa cells assessed as effect on S phase incubated for 21 hrs by propidium iodide based flow cytometry; assay type: functional
[23] = Activation of wnt pathway in mouse C2C12 cells assessed as increase in alkaline phosphatase activity; assay type: cell-based
[24] = Activation of wnt pathway in mouse C2C12 cells assessed as increase in beta-catenin activity; assay type: cell-based
[25] = biological target: Microtubule-associated protein tau (Homo sapiens) (UniProt P10636); assay: Inhibition of human Tau at 40 uM relative to control
[26] = biological target: T1, Angiopoietin-like protein 8 (Homo sapiens) (UniProt Q6UXH0); assay: Inhibition of human Angptl8 at 40 uM relative to control
T1 sequence (whole entry): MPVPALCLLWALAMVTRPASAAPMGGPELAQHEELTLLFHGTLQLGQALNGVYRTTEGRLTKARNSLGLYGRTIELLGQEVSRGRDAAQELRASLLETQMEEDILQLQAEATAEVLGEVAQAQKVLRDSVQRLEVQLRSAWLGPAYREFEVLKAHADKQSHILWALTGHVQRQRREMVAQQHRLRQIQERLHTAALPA

[27] = biological target: Apolipoprotein C-III (Homo sapiens) (UniProt P02656); assay: Inhibition of human APOC3 at 40 uM relative to control
[28] = biological target: Sodium channel protein type 9 subunit alpha (Homo sapiens) (UniProt Q15858); assay: Inhibition of human Nav1.7 at 40 uM relative to control
[29] = biological target: Proprotein convertase subtilisin/kexin type 9 (Homo sapiens) (UniProt Q8NBP7); assay: Inhibition of human PCSK9 at 40 uM relative to control
HT-29 [30] = assay: Antiproliferative activity against human HT-29 cells assessed as reduction in cell viability incubated for 24 hrs by MTT assay; assay type: functional, cell-based; conditions: HT-29, 24 h
HT-29 [31] = assay: Antiproliferative activity against human HT-29 cells assessed as reduction in cell viability incubated for 24 hrs in hypoxia condition by MTT assay; assay type: functional, cell-based; conditions: HT-29, 24 h
HT-29 [32] = assay: Selectivity index, ratio of IC50 of antiproliferative activity against human HT-29 cells in normoxia to IC50 of antiproliferative activity against human HT-29 cells in hypoxia condition; assay type: functional
CHO = assay: Cytotoxicity against CHO cells assessed as reduction in cell viability; assay type: cell-based; conditions: Cricetulus griseus
CYP1A1 = assay: Selectivity index, ratio of IC50 of cytotoxicity against CHO cells to IC50 for bioactivation in CYP1A1 (unknown origin) transfected CHO cells assessed as CYP1A1-mediated drug activation by measuring reduction in cell viability; assay type: cell-based; conditions: hamster, CHO cells and CYP1A1-transfected CHO cells; read-out: Ratio IC50

GTPase KRas (Homo sapiens), P01116 [UNDEFINED MUTATION], sequence (P01116 whole entry, looked up, change not shown): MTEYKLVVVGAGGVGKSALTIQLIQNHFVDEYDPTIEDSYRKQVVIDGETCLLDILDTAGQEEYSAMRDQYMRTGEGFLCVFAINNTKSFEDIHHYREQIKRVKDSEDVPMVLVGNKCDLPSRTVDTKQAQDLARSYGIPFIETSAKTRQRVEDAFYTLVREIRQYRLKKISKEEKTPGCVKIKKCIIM
Sodium channel protein type 9 subunit alpha (Homo sapiens), sequence (Q15858 whole entry, looked up): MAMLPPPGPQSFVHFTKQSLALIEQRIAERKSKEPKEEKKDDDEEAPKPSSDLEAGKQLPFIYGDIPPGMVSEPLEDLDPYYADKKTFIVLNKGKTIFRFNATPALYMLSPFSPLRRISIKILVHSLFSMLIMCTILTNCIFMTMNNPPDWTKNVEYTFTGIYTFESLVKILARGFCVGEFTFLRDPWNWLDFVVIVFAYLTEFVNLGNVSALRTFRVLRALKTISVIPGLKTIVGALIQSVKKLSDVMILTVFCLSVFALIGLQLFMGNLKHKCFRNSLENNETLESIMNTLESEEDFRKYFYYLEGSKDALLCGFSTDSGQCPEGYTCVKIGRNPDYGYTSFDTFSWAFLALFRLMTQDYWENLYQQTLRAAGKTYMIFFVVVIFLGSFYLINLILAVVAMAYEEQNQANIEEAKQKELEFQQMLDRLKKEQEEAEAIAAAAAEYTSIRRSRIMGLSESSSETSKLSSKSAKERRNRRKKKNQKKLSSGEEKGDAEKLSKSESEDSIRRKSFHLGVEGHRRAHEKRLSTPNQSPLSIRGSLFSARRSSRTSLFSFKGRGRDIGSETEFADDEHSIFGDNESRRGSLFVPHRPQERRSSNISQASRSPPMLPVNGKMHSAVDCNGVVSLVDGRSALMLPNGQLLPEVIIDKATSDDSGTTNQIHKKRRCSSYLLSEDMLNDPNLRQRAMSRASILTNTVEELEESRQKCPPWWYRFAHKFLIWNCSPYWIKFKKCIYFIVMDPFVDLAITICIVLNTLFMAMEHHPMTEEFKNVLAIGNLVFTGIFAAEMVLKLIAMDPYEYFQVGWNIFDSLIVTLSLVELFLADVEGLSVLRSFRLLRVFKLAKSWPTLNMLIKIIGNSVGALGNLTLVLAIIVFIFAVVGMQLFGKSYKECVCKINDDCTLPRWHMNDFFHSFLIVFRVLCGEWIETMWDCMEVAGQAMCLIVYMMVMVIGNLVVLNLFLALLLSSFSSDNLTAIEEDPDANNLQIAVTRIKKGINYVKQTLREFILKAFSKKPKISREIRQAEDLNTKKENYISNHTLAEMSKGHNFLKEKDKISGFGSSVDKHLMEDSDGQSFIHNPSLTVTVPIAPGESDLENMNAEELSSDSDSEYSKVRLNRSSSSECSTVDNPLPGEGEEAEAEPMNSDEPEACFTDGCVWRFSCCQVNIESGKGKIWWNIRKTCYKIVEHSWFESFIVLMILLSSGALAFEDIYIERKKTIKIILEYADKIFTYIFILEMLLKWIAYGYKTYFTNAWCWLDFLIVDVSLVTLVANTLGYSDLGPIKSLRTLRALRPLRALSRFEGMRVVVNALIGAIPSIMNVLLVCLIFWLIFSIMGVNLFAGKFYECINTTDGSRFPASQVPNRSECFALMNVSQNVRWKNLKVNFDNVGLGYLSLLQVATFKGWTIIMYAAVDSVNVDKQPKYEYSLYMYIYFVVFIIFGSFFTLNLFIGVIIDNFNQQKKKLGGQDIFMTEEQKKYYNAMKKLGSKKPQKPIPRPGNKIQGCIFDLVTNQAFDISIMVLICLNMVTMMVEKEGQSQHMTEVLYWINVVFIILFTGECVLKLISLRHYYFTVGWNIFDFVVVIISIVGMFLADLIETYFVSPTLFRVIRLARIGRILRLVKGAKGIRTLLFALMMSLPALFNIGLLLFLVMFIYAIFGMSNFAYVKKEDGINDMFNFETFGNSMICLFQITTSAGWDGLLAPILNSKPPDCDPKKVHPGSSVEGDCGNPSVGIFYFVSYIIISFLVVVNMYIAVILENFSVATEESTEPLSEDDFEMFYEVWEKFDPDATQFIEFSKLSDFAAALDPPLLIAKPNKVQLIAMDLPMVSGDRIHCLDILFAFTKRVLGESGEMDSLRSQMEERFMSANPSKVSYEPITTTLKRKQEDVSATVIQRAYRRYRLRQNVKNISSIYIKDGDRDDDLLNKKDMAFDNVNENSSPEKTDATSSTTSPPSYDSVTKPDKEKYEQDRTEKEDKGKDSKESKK
Proprotein convertase subtilisin/kexin type 9 (Homo sapiens), sequence (Q8NBP7 31-152 limits assumed): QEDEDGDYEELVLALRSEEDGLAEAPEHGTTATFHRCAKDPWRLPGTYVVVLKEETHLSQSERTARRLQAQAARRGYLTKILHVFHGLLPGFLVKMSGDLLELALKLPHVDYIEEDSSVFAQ
Proprotein convertase subtilisin/kexin type 9 (Homo sapiens), sequence (Q8NBP7 153-692 limits assumed): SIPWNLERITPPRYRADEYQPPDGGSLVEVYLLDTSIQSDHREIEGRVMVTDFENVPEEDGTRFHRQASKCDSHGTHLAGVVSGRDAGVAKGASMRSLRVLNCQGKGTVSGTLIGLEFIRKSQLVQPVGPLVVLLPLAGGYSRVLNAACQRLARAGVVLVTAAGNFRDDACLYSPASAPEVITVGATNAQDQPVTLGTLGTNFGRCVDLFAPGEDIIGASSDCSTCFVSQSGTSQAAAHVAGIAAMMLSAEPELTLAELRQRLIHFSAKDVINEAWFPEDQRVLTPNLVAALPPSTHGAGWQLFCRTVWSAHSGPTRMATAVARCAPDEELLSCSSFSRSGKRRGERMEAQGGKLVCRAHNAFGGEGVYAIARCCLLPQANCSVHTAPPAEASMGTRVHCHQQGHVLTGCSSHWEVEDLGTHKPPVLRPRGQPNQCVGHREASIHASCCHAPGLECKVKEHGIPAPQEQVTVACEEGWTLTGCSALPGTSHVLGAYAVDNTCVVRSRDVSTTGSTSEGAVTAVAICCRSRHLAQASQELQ
Microtubule-associated protein tau (Homo sapiens), sequence (P10636 whole entry): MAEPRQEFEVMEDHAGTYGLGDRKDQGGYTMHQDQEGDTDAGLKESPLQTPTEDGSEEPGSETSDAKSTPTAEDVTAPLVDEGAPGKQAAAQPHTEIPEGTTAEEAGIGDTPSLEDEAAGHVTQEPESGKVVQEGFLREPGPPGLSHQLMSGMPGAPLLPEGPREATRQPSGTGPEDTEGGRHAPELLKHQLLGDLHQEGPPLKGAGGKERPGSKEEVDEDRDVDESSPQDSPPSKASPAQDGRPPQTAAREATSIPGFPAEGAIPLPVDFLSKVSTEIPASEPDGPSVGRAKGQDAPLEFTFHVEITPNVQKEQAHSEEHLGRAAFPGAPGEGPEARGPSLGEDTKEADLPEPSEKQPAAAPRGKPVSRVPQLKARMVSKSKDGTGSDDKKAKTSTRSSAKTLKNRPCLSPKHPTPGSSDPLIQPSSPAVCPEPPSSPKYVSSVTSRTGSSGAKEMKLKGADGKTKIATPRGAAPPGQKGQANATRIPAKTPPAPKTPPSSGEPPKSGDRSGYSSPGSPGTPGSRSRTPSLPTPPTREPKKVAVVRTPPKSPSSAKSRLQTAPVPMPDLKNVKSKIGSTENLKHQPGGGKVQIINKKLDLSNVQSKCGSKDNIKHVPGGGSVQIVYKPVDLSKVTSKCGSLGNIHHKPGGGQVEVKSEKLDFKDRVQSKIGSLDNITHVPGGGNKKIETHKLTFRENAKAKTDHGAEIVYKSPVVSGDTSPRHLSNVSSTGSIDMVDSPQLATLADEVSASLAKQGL
Apolipoprotein C-III (Homo sapiens), sequence (P02656 whole entry): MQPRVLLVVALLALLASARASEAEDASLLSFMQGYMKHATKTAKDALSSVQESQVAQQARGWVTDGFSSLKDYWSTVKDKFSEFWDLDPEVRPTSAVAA

`CCCCc1c2c(c(C)c3c1C(=O)OC3)Oc1ccccc1O2` showed an inhibition [1] of 17%, an inhibition [2] of 73% and an inhibition [3] of 138%. It also gave an inhibition [4] of 17%, an inhibition [5] of 65% and an inhibition [6] of 91%. The inhibition [7] was 5%, the inhibition [8] was 66% and the inhibition [9] was 78%. It also gave an inhibition [10] of 67%, an inhibition [11] of 63% and an inhibition [12] of 80%. The inhibition [13] was “Dose-dependent effect”, the inhibition [14] was “Dose-dependent effect” and the inhibition [15] was “Dose-dependent effect”. The inhibition [16] was “Dose-dependent effect”, the IC50 (HeLa [17]) was 2200 nM and the EC50 (HeLa [18]) was 2000 nM. For the same compound, the EC50 (HeLa [19]) was 2100 nM, the IC50 (HeLa [20]) was 1700 nM and the EC50 (HeLa [21]) was over 10000 nM. It also gave an IC50 (HeLa [22]) of over 10000 nM, an EC50 [23] of 6700 nM and an EC50 [24] of over 20000 nM. The inhibition [25] was 92%, the inhibition [26] was 93% and the inhibition [27] was 89%. It also gave an inhibition [28] of 76%, an inhibition [29] of 95% and an IC50 (HT-29 [30]) of 1730 nM. The IC50 (HT-29 [31]) was 7330 nM, the “Ratio IC50” value (HT-29 [32]) was 0.24 and the IC50 (CHO) was 1480 nM. It also gave a selectivity ratio (CYP1A1) of 3.7.

Reference: ChEMBL document CHEMBL4312009, “Multigram scale synthesis of polycyclic lactones and evaluation of antitumor and other biological properties” (Eur J Med Chem, 2020)
